Test results reported in US10532995B2, “Substituted pyrazole compounds as serine protease inhibitors” (VERSEON CORPORATION, priority 2015, dated 2020).

The molecules below were run against T1, Human thrombin (Homo sapiens, UniProt P00734) (assay: Thrombin protease activity inhibition, chromogenic substrate S-2238). Settings: 3 nM thrombin, 125 μM S-2238, 10 min pre-incubation, RT.
T1 construct: purchased Haematologic Technologies Inc
Assay type: biochemical
Description: The thrombin activity reported herein (e.g., Table A) was obtained as follows. […] Thrombin was assayed in buffer containing 0.05 M Tris (pH 7.4), 0.015 M NaCl and 0.01% PEG-8000. The final concentration of enzyme used was 3 nM thrombin. […] All assays were performed in 96-well microtiter plates at room temperature (RT). […] Inhibitor IC50 values were determined by adding test compound as ten point, three-fold serial dilutions in buffer solution, as known in the art. The plate was read at 10 minutes after substrate addition. The IC50 was calculated by plotting the percent (%) inhibition against compound concentration and fitting the data to a constrained four parameter sigmoidal curve, as known in the art.
`C=CCOC(=O)N1CCCC1c1cc(NCc2ccc(Cl)s2)[nH]n1` (stereo not shown) [Entry 253, prop-2-en-1-yl 2-(5-[(5-chlorothiophen-2-yl)methyl]amino-1H-pyrazol-3-yl)pyrrolidine-1-carboxylate] was tested, and the IC50 was > 100000 nM.
`Clc1ccc(CNc2cc(C3CCCO3)n[nH]2)s1` (stereo not shown) [Entry 184, N-[(5-chlorothiophen-2-yl)methyl]-3-(oxolan-2-yl)-1H-pyrazol-5-amine] was tested, and the IC50 was > 100000 nM.
For `CC(C)(C)OC(=O)N1CCCC1c1cc(NCc2ccc(Cl)s2)[nH]n1` (stereo not shown) [Entry 277, tert-butyl 2-(5-[(5-chlorothiophen-2-yl)methyl]amino-1H-pyrazol-3-yl)pyrrolidine-1-carboxylate], the IC50 was > 100000 nM.
In the case of `O=C(N1CCOCC1)N1C2CCC1CC(c1cc(NCc3ccc(Cl)s3)[nH]n1)C2` (stereo not shown) [Entry 214, N-[(5-chlorothiophen-2-yl)methyl]-3-[8-(morpholine-4-carbonyl)-8-azabicyclo[3.2.1]octan-3-yl]-1H-pyrazol-5-amine], the IC50 is reported as > 100000 nM.
Molecule `CN(C)S(=O)(=O)N1CCC(c2cc(NCc3ccc(Cl)s3)n(C(=O)C(C)(C)C)n2)CC1` [Entry 133, 4-(5-[(5-chlorothiophen-2-yl)methyl]amino-1-(2,2-dimethylpropanoyl)-1H-pyrazol-3-yl)-N,N-dimethylpiperidine-1-sulfonamide] has an IC50 of 100 to 1000 nM.
`C=CCOC(=O)N1C2CCC1CC(c1cc(NCc3ccc(Cl)s3)[nH]n1)C2` (stereo not shown) [Entry 257, prop-2-en-1-yl 3-(5-[(5-chlorothiophen-2-yl)methyl]amino-1H-pyrazol-3-yl)-8-azabicyclo[3.2.1]octane-8-carboxylate] gave an IC50 of 10000 to 100000 nM.
`COc1ccccc1C(=O)n1nc(C2(C)CCCNC2=O)cc1NCc1ccc(Cl)s1` (stereo not shown) [Entry 117, 3-(5-[(5-chlorothiophen-2-yl)methyl]amino-1-(2-methoxybenzoyl)-1H-pyrazol-3-yl)-3-methylpiperidin-2-one] showed an IC50 of 100 to 1000 nM.
In the case of `CC(=O)N1CCC(c2cc(NCc3ccc(Cl)s3)n(C(=O)C(C)(C)C)n2)CC1` [Entry 94, 1-[3-(1-acetylpiperidin-4-yl)-5-[(5-chlorothiophen-2-yl)methyl]amino-1H-pyrazol-1-yl]-2,2-dimethylpropan-1-one], the IC50 is reported as < 100 nM.
For `CS(=O)(=O)N1C2CCC1CC(c1cc(NCc3ccc(Cl)s3)n(C(=O)c3cscn3)n1)C2` (stereo not shown) [Entry 225, N-[(5-chlorothiophen-2-yl)methyl]-3-8-methanesulfonyl-8-azabicyclo[3.2.1]octan-3-yl-1-(1,3-thiazole-4-carbonyl)-1H-pyrazol-5-amine], the IC50 was < 100 nM.
In the case of `CC(C)(C)C(=O)N1CC(c2cc(NCc3ccc(Cl)s3)[nH]n2)C1` [Entry 97, 1-[3-(5-[(5-chlorothiophen-2-yl)methyl]amino-1H-pyrazol-3-yl)azetidin-1-yl]-2,2-dimethylpropan-1-one], the IC50 is reported as > 100000 nM.
`CC(C)(C)OC(=O)N1CCCC(c2cc(NCc3ccc(Cl)s3)n(C(=O)C(C)(C)CO)n2)C1` (stereo not shown) [Entry 283, tert-butyl 3-(5-[(5-chlorothiophen-2-yl)methyl]amino-1-(3-hydroxy-2,2-dimethylpropanoyl)-1H-pyrazol-3-yl)piperidine-1-carboxylate] was tested, and the IC50 was < 100 nM.
Work on `CC(C)(CO)C(=O)n1nc(C2(C)CCCNC2=O)cc1NCc1ccc(Cl)s1` (stereo not shown) [Entry 119, 3-(5-[(5-chlorothiophen-2-yl)methyl]amino-1-(3-hydroxy-2,2-dimethylpropanoyl)-1H-pyrazol-3-yl)-3-methylpiperidin-2-one] yielded an IC50 of 100 to 1000 nM.
`O=S(=O)(c1ccccc1)N1CCC(c2cc(NCc3ccc(Cl)s3)[nH]n2)CC1` [Entry 130, 3-[1-(benzenesulfonyl)piperidin-4-yl]-N-[(5-chlorothiophen-2-yl)methyl]-1H-pyrazol-5-amine] gave an IC50 of 1000 to 10000 nM.
For `COc1ccc(C(=O)n2nc(C3CCCN3)cc2NCc2ccc(Cl)s2)c(OC)c1` (stereo not shown) [Entry 148, N-[(5-chlorothiophen-2-yl)methyl]-1-(2,4-dimethoxybenzoyl)-3-(pyrrolidin-2-yl)-1H-pyrazol-5-amine], the IC50 was < 100 nM.
With `O=C(N1CCOCC1)N1CCC(c2cc(NCc3ccc(Cl)s3)[nH]n2)C1` (stereo not shown) [Entry 206, N-[(5-chlorothiophen-2-yl)methyl]-3-[1-(morpholine-4-carbonyl)pyrrolidin-3-yl]-1H-pyrazol-5-amine] the IC50 was > 100000 nM.
For `C=CCOC(=O)N1CCCC(c2cc(NCc3ccc(Cl)s3)n(C(=O)c3cscn3)n2)CC1` (stereo not shown) [Entry 260, prop-2-en-1-yl 4-(5-[(5-chlorothiophen-2-yl)methyl]amino-1-(1,3-thiazole-4-carbonyl)-1H-pyrazol-3-yl)azepane-1-carboxylate], the IC50 was < 100 nM.
In the case of `C=CCOC(=O)N1C2CCC1CC(c1cc(NCc3ccc(Cl)s3)n(C(=O)C(C)(C)C)n1)C2` (stereo not shown) [Entry 254, prop-2-en-1-yl 3-(5-[(5-chlorothiophen-2-yl)methyl]amino-1-(2,2-dimethylpropanoyl)-1H-pyrazol-3-yl)-8-azabicyclo[3.2.1]octane-8-carboxylate], the IC50 is reported as < 100 nM.
`C=CCOC(=O)N1CCC(c2cc(NCc3ccc(Cl)s3)[nH]n2)C1` (stereo not shown) [Entry 259, prop-2-en-1-yl 3-(5-[(5-chlorothiophen-2-yl)methyl]amino-1H-pyrazol-3-yl)pyrrolidine-1-carboxylate] was tested, and the IC50 was > 100000 nM.
With `O=C(N1CCOCC1)N1CCC(c2cc(NCc3ccc(Cl)s3)n(C(=O)c3cscn3)n2)C1` (stereo not shown) [Entry 205, N-[(5-chlorothiophen-2-yl)methyl]-3-[1-(morpholine-4-carbonyl)pyrrolidin-3-yl]-1-(1,3-thiazole-4-carbonyl)-1H-pyrazol-5-amine] the IC50 was < 100 nM.
With `C=CCOC(=O)N1CCN(S(=O)(=O)N2CCOCC2)CC1c1cc(NCc2ccc(Cl)s2)[nH]n1` (stereo not shown) [Entry 250, prop-2-en-1-yl 2-(5-[(5-chlorothiophen-2-yl)methyl]amino-1H-pyrazol-3-yl)-4-(morpholine-4-sulfonyl)piperazine-1-carboxylate] the IC50 was > 100000 nM.
In the case of `CN(C)C(=O)N1CCC(c2cc(NCc3ccc(Cl)s3)[nH]n2)CC1` [Entry 137, 4-(5-[(5-chlorothiophen-2-yl)methyl]amino-1H-pyrazol-3-yl)-N,N-dimethylpiperidine-1-carboxamide], the IC50 is reported as > 100000 nM.
For `CC(C)(C)OC(=O)N1CCCC(c2cc(NCc3ccc(Cl)s3)[nH]n2)C1` (stereo not shown) [Entry 290, tert-butyl 3-(5-[(5-chlorothiophen-2-yl)methyl]amino-1H-pyrazol-3-yl)piperidine-1-carboxylate], the IC50 was > 100000 nM.
Work on `Clc1ccc(CNc2cc(C3CCN(Cc4ccccn4)CC3)n[nH]2)s1` [Entry 210, N-[(5-chlorothiophen-2-yl)methyl]-3-[1-(pyridin-2-ylmethyl)piperidin-4-yl]-1H-pyrazol-5-amine] yielded an IC50 of 1000 to 10000 nM.
In the case of `COCCN1CCC(c2cc(NCc3ccc(Cl)s3)[nH]n2)CC1` [Entry 200, N-[(5-chlorothiophen-2-yl)methyl]-3-[1-(2-methoxyethyl)piperidin-4-yl]-1H-pyrazol-5-amine], the IC50 is reported as > 100000 nM.
For `Clc1ccc(CNc2cc(C3CCN(CCN4CCOCC4)CC3)n[nH]2)s1` [Entry 223, N-[(5-chlorothiophen-2-yl)methyl]-3-1-[2-(morpholin-4-yl)ethyl]piperidin-4-yl-1H-pyrazol-5-amine], the IC50 was 1000 to 10000 nM.
`CC(=O)N1CCC(c2cc(NCc3ccc(Cl)s3)n(C(=O)c3ccsc3)n2)CC1` [Entry 102, 1-[4-(5-[(5-chlorothiophen-2-yl)methyl]amino-1-(thiophene-3-carbonyl)-1H-pyrazol-3-yl)piperidin-1-yl]ethan-1-one] showed an IC50 of 100 to 1000 nM.
`CC1(c2cc(NCc3ccc(Cl)s3)n(C(=O)c3ccsc3)n2)CCNCC1` [Entry 180, N-[(5-chlorothiophen-2-yl)methyl]-3-(4-methylpiperidin-4-yl)-1-(thiophene-3-carbonyl)-1H-pyrazol-5-amine] was tested, and the IC50 was 1000 to 10000 nM.
`Cc1c(C2CCN(C(=O)N3CCOCC3)CC2)n[nH]c1NCc1ccc(Cl)s1` [Entry 237, N-[(5-chlorothiophen-2-yl)methyl]-4-methyl-3-[1-(morpholine-4-carbonyl)piperidin-4-yl]-1H-pyrazol-5-amine] gave an IC50 of 10000 to 100000 nM.
`COc1ccccc1C(=O)n1nc(C2(C)CCNCC2)cc1NCc1ccc(Cl)s1` [Entry 154, N-[(5-chlorothiophen-2-yl)methyl]-1-(2-methoxybenzoyl)-3-(4-methylpiperidin-4-yl)-1H-pyrazol-5-amine] gave an IC50 of 1000 to 10000 nM.
For `COc1ccccc1C(=O)n1nc(C2(C)CCNC2=O)cc1NCc1ccc(Cl)s1` (stereo not shown) [Entry 118, 3-(5-[(5-chlorothiophen-2-yl)methyl]amino-1-(2-methoxybenzoyl)-1H-pyrazol-3-yl)-3-methylpyrrolidin-2-one], the IC50 was 100 to 1000 nM.
`CS(=O)(=O)N1CCNC(c2cc(NCc3ccc(Cl)s3)[nH]n2)C1` (stereo not shown) [Entry 179, N-[(5-chlorothiophen-2-yl)methyl]-3-(4-methanesulfonylpiperazin-2-yl)-1H-pyrazol-5-amine] was tested, and the IC50 was > 100000 nM.
For `CC(C)(C)OC(=O)N1CCCC(C)(c2cc(NCc3ccc(Cl)s3)n(C(=O)C(C)(C)C)n2)C1` (stereo not shown) [Entry 278, tert-butyl 3-(5-[(5-chlorothiophen-2-yl)methyl]amino-1-(2,2-dimethylpropanoyl)-1H-pyrazol-3-yl)-3-methylpiperidine-1-carboxylate], the IC50 was < 100 nM.
`COCC(C)(C)C(=O)n1nc(C2(C)CCCN(C(=O)OC(C)(C)C)C2)cc1NCc1ccc(Cl)s1` (stereo not shown) [Entry 284, tert-butyl 3-(5-[(5-chlorothiophen-2-yl)methyl]amino-1-(3-methoxy-2,2-dimethylpropanoyl)-1H-pyrazol-3-yl)-3-methylpiperidine-1-carboxylate] showed an IC50 of 100 to 1000 nM.
In the case of `CC1(C(=O)n2nc(C3CCCNC3)cc2NCc2ccc(Cl)s2)CCOCC1` (stereo not shown) [Entry 164, N-[(5-chlorothiophen-2-yl)methyl]-1-(4-methyloxane-4-carbonyl)-3-(piperidin-3-yl)-1H-pyrazol-5-amine], the IC50 is reported as 100 to 1000 nM.
